In PMC4861903, “Synthesis of a highly water-soluble acacetin prodrug for treating experimental atrial fibrillation in beagle dogs” (Scientific Reports, 2016):
Values after ≈ are worked out from the molar mass of the structure shown. Read-outs that look alike come from different tables or passages of the source.

What was measured:
[1] = Aqueous solubility by HPLC in H2O, 5% glucose and 0.9% NaCl; type: physicochemical
[2] = target: T1, hKv1.5 current (IKur, KCN5A) (Homo sapiens, UniProt P22460); assay: Whole-cell patch clamp of hKv1.5 current in HEK 293 cells; type: cell-based; settings: 10 μM, at +50 mV, current at end of the voltage step, n = 5
T1 construct: expressed in transfected cells
T1 sequence (P22460 whole entry): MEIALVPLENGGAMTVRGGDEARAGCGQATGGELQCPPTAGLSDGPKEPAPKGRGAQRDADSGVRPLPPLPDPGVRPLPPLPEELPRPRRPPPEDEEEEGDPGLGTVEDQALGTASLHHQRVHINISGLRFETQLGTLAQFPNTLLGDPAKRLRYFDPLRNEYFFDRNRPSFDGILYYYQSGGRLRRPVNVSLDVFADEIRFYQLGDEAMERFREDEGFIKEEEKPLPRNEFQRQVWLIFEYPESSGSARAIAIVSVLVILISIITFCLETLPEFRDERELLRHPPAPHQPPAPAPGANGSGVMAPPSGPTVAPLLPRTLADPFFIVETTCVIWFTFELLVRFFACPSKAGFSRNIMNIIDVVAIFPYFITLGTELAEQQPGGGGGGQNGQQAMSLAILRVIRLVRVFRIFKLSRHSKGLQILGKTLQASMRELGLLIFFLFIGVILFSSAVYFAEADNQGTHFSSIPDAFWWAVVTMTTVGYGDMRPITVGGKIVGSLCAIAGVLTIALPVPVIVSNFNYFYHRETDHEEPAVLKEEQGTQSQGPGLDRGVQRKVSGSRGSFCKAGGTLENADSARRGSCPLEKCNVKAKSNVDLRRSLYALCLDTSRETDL
Description: (§1) Whole-cell currents of hKv1.5 and hKv4.3 were recorded in established HEK 293 cell lines stably expressing hKv1.5 (KCN5A) and hKv4.3 (KCND3) and IKACh was determined in isolated rat atrial myocytes as described previously[12][31][32] and in Supplemental Materials. […]
(§2) Effects of acacetin prodrug on cardiac potassium currents
(§3) Whole-cell currents of hKv1.5 and hKv4.3 were recorded in established HEK 293 cell lines stably expressing hKv1.5 (KCN5A) and hKv4.3 (KCND3).1, 2 The cells were cultured in Dulbecco’s modified eagle’s medium (DMEM, Invitrogen, Hong Kong) supplemented with 10% fetal bovine serum and 400 µg/mL G418. Cells on a coverslip were transferred to an open cell chamber (0.5 ml) mounted on the stage of an inverted microscope and superfused with Tyrode’s solution at 2 mL/min. The whole cell patch-clamp technique was used as described previously.1, 2 The whole-cell membrane currents were measured using an EPC-10 amplifier and Pulse software (Heka Elektronik, Lambrecht, Germany). Borosilicate glass electrodes (1.2-mm OD) were pulled with a Brown/Flaming puller (model P-97, Sutter Instrument, Nato, CA) and had resistances of 1.5~2.5 MΩ when filled with the pipette solution. A 3-M KCl agar bridge was used as the reference electrode. The tip potential was zeroed before the patch pipette contacted the cell. […]

[3] = target: T2, hKv4.3 current (Ito, KCND3) (Homo sapiens, UniProt Q9UK17); assay: Whole-cell patch clamp of hKv4.3 current in HEK 293 cells; type: cell-based; settings: 10 μM, at +50 mV, current peak, n = 5
T2 construct: expressed in transfected cells
T2 sequence (Q9UK17 1-655): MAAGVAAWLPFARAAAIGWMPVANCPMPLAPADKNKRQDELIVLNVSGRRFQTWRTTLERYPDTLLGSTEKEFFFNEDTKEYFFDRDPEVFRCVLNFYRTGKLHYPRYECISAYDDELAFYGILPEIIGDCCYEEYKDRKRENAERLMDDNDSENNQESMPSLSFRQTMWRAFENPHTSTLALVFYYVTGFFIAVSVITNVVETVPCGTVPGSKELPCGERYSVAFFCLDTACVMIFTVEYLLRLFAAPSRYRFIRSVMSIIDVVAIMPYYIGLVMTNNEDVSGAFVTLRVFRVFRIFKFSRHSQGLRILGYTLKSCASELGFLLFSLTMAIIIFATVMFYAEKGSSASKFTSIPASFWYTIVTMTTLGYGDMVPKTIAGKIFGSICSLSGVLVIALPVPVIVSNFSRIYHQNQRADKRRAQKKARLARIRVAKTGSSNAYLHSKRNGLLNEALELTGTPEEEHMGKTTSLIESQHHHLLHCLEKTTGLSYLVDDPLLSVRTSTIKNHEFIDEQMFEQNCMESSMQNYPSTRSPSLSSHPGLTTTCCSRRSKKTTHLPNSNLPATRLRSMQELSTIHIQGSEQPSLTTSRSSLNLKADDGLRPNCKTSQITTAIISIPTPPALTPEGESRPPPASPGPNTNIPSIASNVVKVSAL
Description: as §1, §2, §3

[4] = target: T3, IKACh (acetylcholine-activated K+ current) (Rattus norvegicus, UniProt P48548+P63251); assay: Whole-cell IKACh elicited by 5 μM carbachol in rat atrial myocytes; type: cell-based; settings: 10 μM, at −100 mV, carbachol sensitive current, n = 5
T3 construct: endogenous in cells; host or cells: atrial myocytes dissociated from male Sprague-Dawley rats
T3 sequence (P63251 1-501): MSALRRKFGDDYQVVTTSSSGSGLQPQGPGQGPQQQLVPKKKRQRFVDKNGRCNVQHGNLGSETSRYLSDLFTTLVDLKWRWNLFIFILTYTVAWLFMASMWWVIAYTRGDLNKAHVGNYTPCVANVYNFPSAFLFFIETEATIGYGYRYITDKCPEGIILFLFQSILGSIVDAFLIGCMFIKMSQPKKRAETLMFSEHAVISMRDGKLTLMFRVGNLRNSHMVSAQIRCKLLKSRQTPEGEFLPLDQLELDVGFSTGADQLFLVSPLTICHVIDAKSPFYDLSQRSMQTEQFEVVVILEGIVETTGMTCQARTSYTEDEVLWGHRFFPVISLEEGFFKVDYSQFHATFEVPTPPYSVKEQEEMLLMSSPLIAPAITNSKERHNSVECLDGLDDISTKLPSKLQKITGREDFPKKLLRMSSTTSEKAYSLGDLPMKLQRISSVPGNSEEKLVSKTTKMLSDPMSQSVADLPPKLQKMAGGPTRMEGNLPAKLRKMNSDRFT
T3 sequence (P48548 1-419): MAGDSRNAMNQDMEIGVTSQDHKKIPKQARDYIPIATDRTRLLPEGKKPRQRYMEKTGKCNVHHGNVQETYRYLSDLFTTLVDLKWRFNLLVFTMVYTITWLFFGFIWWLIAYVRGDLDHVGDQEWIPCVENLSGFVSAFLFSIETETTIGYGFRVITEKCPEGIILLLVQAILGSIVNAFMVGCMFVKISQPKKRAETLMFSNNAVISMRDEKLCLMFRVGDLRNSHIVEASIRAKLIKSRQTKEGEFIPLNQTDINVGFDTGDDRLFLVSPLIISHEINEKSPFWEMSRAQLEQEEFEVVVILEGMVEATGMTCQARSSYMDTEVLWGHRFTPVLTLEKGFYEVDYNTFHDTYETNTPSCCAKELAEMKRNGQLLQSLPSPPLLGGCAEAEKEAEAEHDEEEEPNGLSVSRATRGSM
Description: as §1
Effects of acacetin prodrug on cardiac potassium currents […]
Cells on a coverslip were transferred to an open cell chamber (0.5 ml) mounted on the stage of an inverted microscope and superfused with Tyrode’s solution at 2 mL/min. The whole cell patch-clamp technique was used as described previously.1, 2 The whole-cell membrane currents were measured using an EPC-10 amplifier and Pulse software (Heka Elektronik, Lambrecht, Germany). Borosilicate glass electrodes (1.2-mm OD) were pulled with a Brown/Flaming puller (model P-97, Sutter Instrument, Nato, CA) and had resistances of 1.5~2.5 MΩ when filled with the pipette solution. A 3-M KCl agar bridge was used as the reference electrode. The tip potential was zeroed before the patch pipette contacted the cell. After a giga-Ohm seal was obtained, the cell membrane was ruptured by applying gentle pressure to establish a whole-cell configuration. […] The liquid junction potential (14.7 mV) calculated with the software Clampex was not corrected in the experiment and data […]
Whole-cell current of IKACh was determined in isolated rat atrial myocytes. […]

[5] = target: T4, hERG channels (Homo sapiens, UniProt Q12809); settings: 30 μM; cited from earlier work
T4 construct: expressed in transfected cells; host or cells: HEK 293
T4 sequence (Q12809 whole entry): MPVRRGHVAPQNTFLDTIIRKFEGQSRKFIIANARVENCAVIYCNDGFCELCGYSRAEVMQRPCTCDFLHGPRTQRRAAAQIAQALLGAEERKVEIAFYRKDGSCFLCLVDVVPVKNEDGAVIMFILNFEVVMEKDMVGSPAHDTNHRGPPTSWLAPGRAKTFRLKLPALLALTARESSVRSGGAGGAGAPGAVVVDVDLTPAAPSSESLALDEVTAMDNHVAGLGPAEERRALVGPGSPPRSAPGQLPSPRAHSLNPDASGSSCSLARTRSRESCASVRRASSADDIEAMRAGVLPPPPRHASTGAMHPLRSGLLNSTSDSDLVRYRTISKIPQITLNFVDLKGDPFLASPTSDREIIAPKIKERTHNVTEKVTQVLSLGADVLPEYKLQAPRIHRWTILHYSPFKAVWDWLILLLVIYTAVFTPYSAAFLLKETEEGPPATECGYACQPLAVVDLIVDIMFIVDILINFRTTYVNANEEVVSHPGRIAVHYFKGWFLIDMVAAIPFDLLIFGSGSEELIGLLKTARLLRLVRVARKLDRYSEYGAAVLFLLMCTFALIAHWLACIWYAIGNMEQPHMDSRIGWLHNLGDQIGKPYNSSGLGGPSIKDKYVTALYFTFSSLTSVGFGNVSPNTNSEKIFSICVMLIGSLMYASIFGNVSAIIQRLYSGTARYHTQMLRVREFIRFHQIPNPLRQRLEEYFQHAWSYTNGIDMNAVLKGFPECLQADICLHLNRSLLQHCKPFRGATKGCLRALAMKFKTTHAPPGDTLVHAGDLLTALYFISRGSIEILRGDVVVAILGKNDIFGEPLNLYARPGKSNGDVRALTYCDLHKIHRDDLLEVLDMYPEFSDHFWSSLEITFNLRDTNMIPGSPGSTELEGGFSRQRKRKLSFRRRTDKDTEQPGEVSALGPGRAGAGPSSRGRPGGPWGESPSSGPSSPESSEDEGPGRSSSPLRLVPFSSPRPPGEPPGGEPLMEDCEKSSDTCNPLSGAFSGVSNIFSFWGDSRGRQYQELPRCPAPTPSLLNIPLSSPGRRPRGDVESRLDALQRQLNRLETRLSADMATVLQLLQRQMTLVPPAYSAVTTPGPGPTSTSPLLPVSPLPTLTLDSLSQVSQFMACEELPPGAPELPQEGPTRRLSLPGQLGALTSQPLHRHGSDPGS

solubility [1] [µg/mL]	solubility ([1]; 24 °C, saline or isotonic) [µg/mL]	solubility ([1]; 24 °C, water) [µg/mL]	decrease of hKv1.5 current [2] [%]	decrease of hKv4.3 current [3] [%]	decrease of IK.ACh [4] [%]	Structure (SMILES)	solubility ([1]; 24 °C, saline or isotonic, in 0.9% NaCl, room temperature (23–25 °C), n = 3, read-out: maximum solubility) [µg/mL]	solubility ([1]; 24 °C, saline or isotonic, in 5% glucose, room temperature (23–25 °C), n = 3, read-out: maximum solubility) [µg/mL]	solubility ([1]; 24 °C, water, in H2O, room temperature (23–25 °C), n = 3, read-out: maximum solubility) [µg/mL]	increase of aqueous solubility vs acacetin ([1]; in 0.9% NaCl) [folds]	increase of aqueous solubility vs acacetin ([1]; in 5% glucose) [folds]	increase of aqueous solubility vs acacetin ([1]; in H2O) [folds]	inhibition of hERG current [5]
–	–	–	–	–	–	COc1ccc(-c2cc(=O)c3c(O)cc(OP(=O)(O)O)cc3o2)cc1 [phosphate ester of acacetin]	4.3 ± 0.1	2.7 ± 0.1	2.5 ± 0.1	21	7.6	37.8	–
0.195 ± 0.0135 (≈ 0.686 µM)	0.312 ± 0.0121 (≈ 1.1 µM)	0.0644 ± 0.0109 (≈ 0.227 µM)	79.7 ± 4.1	69.3 ± 5.1	66.5 ± 3.1	COc1ccc(-c2cc(=O)c3c(O)cc(O)cc3o2)cc1 [acacetin]	–	–	–	–	–	–	~ 50%
